Converted amounts (≈) assume the structure as drawn. “And” between values parts separate entries of the source, which are not always exact repeats. Equal values may be shown once. Read-outs that look alike come from different tables or passages of the source. Values belong to the compound of their own block, whether it stands above or below them.
Assays:
[1] = test system: mutant HSPB1 DRG neurons; assay: Mitochondrial axonal transport in mutant HSPB1 DRG neurons; assay type: cell-based, mouse; conditions: DRG neurons from transgenic mutant HSPB1 mice, 100 nM overnight
[2] = Caco-2 permeability; assay type: in vitro ADME; conditions: human, Caco-2, pH 7.4
[3] = Liver microsomes stability, human; assay type: in vitro ADME
[4] = Liver microsomes stability, mouse; assay type: in vitro ADME
[5] = Hepatocyte stability, human; assay type: in vitro ADME; conditions: hepatocytes
[6] = Hepatocyte stability, mouse; assay type: in vitro ADME; conditions: hepatocytes
[7] = Plasma stability, human; assay type: in vitro ADME; conditions: 120 min
[8] = Plasma stability, mouse; assay type: in vitro ADME; conditions: 120 min
[9] = molecular target: CYP 2D6 (Homo sapiens, UniProt P10635); assay: CYP inhibition 2D6; assay type: in vitro ADME
[10] = Intravenous and oral plasma pharmacokinetics in male CD1 mice; assay type: in vivo; conditions: CD1, mouse
[11] = molecular target: T1, CYP 1A2 (Homo sapiens, UniProt P05177); assay: CYP inhibition 1A2
T1 sequence (P05177 1-516): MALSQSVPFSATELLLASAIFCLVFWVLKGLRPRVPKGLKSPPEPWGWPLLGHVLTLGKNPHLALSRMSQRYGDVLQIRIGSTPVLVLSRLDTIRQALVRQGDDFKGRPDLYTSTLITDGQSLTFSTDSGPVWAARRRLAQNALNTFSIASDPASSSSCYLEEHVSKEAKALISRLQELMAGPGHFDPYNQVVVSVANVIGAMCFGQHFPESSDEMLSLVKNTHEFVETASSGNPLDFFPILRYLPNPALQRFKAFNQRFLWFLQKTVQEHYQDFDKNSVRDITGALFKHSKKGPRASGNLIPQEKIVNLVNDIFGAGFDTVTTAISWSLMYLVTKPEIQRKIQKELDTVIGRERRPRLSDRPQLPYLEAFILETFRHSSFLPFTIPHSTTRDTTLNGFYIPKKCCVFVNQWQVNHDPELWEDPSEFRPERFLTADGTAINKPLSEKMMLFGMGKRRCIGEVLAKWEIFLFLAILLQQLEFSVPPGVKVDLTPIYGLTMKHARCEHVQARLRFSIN

[12] = molecular target: CYP 2C9 (Homo sapiens, UniProt P11712); assay: CYP inhibition 2C9
[13] = molecular target: CYP 2C19 (Homo sapiens, UniProt P33261); assay: CYP inhibition 2C19
[14] = Aqueous solubility; conditions: PBS; for solubility: pH 7.4, aqueous buffer
[15] = molecular target: T2, HDAC6 (Homo sapiens, UniProt Q9UBN7); assay: HDAC6 enzymatic inhibition assay; assay type: biochemical; conditions: for IC50: 10-point enzymatic assay starting from 30 μM, 3-fold serial dilution; for Selectivity HDAC1/HDAC6: ratio of HDAC1 and HDAC6 IC50 of Table 1 (fold)
T2 sequence (Q9UBN7 1-1215): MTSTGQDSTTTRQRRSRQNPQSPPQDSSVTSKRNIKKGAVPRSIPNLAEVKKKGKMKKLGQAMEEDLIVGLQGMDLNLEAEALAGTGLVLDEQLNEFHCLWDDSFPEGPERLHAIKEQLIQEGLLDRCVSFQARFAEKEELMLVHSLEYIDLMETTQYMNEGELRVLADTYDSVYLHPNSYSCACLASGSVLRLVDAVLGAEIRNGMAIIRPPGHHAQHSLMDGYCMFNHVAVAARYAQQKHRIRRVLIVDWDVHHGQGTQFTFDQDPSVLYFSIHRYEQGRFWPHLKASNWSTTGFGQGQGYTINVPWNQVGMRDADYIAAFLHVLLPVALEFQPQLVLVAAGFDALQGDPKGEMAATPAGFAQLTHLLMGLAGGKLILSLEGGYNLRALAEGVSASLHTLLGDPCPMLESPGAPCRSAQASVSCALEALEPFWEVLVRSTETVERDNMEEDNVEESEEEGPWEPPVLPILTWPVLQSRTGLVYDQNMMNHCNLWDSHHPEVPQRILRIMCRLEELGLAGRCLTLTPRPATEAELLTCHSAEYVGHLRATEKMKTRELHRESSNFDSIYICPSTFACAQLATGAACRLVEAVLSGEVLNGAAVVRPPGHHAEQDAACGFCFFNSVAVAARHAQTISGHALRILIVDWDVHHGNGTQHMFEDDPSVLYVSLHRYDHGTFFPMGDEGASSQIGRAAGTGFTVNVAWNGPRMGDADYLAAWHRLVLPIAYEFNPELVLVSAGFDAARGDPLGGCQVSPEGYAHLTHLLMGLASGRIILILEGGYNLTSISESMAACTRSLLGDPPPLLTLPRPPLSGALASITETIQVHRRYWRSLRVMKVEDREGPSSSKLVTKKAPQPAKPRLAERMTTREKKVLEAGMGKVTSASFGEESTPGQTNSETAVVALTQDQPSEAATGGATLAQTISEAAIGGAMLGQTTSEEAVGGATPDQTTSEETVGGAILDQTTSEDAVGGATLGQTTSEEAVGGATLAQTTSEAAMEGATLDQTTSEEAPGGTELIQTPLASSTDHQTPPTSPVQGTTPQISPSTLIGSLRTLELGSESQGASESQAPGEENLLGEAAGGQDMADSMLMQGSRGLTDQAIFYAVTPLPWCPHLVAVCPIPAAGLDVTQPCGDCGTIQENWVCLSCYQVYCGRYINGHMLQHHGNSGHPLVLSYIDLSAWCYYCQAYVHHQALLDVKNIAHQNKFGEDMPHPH

[16] = molecular target: CYP 3A4-M (Homo sapiens, UniProt P08684); assay: CYP inhibition 3A4-M; assay type: in vitro ADME
[17] = molecular target: CYP 3A4-T (Homo sapiens, UniProt P08684); assay: CYP inhibition 3A4-T; assay type: in vitro ADME
[18] = molecular target: HDAC4 (Homo sapiens, UniProt P56524); assay: HDAC4 enzymatic inhibition assay
[19] = molecular target: HDAC5 (Homo sapiens, UniProt Q9UQL6); assay: HDAC5 enzymatic inhibition assay
[20] = molecular target: T3, HDAC8 (Homo sapiens, UniProt Q9BY41); assay: HDAC8 enzymatic inhibition assay
T3 sequence (Q9BY41 1-377): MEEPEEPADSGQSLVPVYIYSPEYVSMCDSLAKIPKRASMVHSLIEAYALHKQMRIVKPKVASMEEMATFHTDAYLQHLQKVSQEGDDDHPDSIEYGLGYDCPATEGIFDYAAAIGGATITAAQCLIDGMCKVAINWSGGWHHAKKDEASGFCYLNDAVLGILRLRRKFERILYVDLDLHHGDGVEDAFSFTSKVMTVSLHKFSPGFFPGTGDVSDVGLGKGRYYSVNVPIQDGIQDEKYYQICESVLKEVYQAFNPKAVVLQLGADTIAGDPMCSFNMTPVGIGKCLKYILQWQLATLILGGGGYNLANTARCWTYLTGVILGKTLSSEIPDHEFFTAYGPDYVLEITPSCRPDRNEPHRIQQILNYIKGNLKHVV

[21] = IC50 (nM) HDAC6, mean of two experiments ± standard deviation

CYP 2D6, sequence (P10635 whole entry): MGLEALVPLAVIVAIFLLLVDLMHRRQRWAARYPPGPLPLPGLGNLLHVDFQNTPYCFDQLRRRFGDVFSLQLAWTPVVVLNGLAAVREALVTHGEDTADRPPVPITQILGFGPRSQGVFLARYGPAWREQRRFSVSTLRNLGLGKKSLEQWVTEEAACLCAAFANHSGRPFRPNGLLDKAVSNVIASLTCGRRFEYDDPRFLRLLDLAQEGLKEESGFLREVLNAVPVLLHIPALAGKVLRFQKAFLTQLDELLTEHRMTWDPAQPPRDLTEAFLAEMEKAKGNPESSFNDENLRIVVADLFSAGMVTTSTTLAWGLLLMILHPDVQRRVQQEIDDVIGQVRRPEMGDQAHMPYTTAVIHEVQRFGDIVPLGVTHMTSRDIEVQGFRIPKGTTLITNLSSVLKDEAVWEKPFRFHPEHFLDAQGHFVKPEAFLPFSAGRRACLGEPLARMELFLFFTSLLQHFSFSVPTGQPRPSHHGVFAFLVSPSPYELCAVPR
CYP 2C9, sequence (P11712 whole entry): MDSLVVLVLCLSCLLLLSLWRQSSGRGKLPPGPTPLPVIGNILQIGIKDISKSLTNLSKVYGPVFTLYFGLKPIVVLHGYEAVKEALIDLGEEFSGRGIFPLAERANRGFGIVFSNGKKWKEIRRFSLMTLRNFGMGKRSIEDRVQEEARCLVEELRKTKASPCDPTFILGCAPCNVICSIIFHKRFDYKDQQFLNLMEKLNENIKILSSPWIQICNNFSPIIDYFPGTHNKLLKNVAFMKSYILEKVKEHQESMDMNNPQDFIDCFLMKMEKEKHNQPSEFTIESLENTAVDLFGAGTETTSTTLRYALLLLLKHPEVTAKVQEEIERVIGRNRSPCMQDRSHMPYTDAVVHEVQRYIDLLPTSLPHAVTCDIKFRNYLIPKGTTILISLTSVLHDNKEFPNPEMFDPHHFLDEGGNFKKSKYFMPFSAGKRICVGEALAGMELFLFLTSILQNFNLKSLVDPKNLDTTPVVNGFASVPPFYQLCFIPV
CYP 2C19, sequence (P33261 whole entry): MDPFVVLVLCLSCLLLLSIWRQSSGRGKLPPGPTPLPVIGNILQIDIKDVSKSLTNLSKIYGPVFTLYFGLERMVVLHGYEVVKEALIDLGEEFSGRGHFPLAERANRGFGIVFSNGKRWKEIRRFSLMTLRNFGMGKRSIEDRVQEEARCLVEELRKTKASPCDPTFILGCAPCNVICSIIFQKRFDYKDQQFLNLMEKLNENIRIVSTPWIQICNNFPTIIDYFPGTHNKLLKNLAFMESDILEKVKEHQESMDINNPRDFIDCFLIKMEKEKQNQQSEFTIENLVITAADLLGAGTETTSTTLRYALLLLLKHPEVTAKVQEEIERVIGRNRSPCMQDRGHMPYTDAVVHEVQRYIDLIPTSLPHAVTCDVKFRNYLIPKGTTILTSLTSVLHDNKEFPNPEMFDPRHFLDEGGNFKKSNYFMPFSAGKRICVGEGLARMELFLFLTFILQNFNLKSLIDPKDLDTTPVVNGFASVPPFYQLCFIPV
HDAC5, sequence (Q9UQL6 whole entry): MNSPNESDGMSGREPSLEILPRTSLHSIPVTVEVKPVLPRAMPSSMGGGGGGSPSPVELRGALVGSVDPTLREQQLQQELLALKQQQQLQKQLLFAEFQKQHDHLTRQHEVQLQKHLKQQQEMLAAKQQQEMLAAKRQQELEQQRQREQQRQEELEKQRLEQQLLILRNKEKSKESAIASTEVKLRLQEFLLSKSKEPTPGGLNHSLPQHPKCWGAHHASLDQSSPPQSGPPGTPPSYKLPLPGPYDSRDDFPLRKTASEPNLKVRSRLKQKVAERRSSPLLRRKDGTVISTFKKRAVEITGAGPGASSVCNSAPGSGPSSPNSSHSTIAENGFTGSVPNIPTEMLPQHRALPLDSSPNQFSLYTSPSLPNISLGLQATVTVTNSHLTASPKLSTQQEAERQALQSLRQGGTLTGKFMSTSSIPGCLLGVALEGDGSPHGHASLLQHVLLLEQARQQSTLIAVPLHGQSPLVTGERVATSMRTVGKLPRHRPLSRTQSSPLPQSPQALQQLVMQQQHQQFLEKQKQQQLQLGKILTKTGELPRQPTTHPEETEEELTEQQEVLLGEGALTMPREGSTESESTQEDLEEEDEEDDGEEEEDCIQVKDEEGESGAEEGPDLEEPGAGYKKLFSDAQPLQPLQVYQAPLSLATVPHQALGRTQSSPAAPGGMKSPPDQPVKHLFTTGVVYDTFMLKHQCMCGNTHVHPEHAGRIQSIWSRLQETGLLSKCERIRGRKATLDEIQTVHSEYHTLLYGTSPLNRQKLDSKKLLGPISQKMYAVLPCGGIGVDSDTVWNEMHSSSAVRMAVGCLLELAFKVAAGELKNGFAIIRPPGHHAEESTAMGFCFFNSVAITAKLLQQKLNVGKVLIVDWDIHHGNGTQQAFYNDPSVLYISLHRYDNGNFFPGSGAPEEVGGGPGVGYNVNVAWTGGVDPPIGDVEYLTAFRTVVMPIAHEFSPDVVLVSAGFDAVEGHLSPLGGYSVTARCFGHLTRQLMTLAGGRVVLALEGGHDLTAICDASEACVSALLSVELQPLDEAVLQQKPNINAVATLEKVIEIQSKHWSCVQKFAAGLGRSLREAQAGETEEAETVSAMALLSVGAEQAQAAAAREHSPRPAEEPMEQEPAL
CYP 3A4-T, sequence (P08684 whole entry): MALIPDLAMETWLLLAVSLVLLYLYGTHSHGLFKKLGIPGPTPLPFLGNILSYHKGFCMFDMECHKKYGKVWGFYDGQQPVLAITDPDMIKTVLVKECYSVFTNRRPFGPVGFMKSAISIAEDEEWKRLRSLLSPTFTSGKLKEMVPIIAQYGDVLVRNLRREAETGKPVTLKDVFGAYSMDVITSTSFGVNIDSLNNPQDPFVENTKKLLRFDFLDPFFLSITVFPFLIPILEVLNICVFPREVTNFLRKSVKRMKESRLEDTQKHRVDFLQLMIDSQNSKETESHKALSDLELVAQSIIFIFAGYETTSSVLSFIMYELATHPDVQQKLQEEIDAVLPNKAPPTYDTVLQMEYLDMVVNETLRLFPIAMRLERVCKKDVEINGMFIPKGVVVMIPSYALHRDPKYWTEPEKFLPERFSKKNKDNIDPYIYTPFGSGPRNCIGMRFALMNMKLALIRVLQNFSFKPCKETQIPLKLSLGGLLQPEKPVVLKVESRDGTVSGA
CYP 3A4-M, sequence (P08684 whole entry): as above
HDAC4, sequence (P56524 whole entry): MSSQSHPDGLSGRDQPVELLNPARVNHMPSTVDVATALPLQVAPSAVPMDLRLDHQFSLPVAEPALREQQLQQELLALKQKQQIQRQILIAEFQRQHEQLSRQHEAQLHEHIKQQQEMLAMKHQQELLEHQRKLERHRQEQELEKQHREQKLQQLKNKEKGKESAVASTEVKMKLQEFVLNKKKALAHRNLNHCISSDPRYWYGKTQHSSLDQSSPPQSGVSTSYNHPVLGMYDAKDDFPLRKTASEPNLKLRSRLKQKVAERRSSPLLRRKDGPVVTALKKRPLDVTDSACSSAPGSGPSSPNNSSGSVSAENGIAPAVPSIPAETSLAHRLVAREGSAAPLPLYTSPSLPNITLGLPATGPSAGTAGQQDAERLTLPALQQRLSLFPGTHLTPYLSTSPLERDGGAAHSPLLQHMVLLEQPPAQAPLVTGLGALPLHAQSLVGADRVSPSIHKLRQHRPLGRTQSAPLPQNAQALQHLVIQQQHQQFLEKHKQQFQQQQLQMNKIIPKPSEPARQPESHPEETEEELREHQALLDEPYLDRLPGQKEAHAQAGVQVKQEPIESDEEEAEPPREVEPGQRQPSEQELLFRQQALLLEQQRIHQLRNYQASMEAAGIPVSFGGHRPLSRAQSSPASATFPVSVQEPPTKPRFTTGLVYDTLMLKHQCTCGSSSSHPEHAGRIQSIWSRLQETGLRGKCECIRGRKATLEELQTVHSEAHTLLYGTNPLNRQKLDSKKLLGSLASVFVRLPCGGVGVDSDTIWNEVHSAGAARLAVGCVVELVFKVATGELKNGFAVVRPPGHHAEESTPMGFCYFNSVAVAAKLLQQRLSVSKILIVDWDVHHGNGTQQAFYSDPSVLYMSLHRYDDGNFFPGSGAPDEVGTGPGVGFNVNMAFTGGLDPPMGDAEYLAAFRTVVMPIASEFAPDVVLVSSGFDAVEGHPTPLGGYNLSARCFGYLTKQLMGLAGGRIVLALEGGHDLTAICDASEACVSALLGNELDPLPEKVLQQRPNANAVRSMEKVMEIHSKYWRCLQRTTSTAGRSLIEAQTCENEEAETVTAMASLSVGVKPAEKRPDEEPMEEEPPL

Compound: CN1CCc2c(c3ccccc3n2Cc2ccc(C(=O)NO)cc2)C1 [tubastatin A, reference compound]
- mitochondrial axonal transport (number of moving mitochondria per 100 μm of neurite) [1]: able to restore the movement of mitochondria
- Papp A→B [2]: 2 ×10⁻⁶ cm/s
- Papp B→A [2]: 19.7 ×10⁻⁶ cm/s
- half-life [3]: 1520 min
- half-life [4]: 303 min
- half-life [5]: 88 min
- half-life [6]: 30 min
- plasma stability remaining percentage [7]: 96.4%
- plasma stability remaining percentage [8]: 83.0%
- IC50 [9]: 16 µM
- clearance ([10]; iv, 3 mg/kg): 222 mL/min/kg
- Tmax ([10]; po, 30 mg/kg): 15 min
- IC50 [11]: > 50 µM
- IC50 [12]: > 50 µM
- IC50 [13]: > 50 µM
- solubility [14]: 301 µM (≈ 101 µg/mL)

Compound: Cc1nc2ccccc2n1Cc1ccc(C(=O)NO)cc1 [12a]
- fold increase in HDAC6 inhibitory potency ([15]; compared to 8 (hydrogen to methyl)): 3 fold
- Selectivity HDAC1/HDAC6 [15]: 955
- IC50 ([15]; read-out: IC50 (nM) HDAC6, mean of two experiments ± standard deviation): 9 nM and 9.2 nM
- mitochondrial axonal transport (number of moving mitochondria per 100 μm of neurite) [1]: able to restore the movement of mitochondria
- aqueous solubility ([14]; pH 7.4): 70 µM (≈ 19.7 µg/mL)

Compound: CC(C)c1nc2ccccc2n1Cc1ccc(C(=O)NO)cc1 [12b, N-Hydroxy-4-[(2-isopropyl-1-benzimidazolyl)methyl]benzamide]
- Selectivity HDAC1/HDAC6 [15]: 589

Compound: CN(C)CCc1nc2ccccc2n1Cc1ccc(C(=O)NO)cc1 [12e, 4-[[2-[2-(Dimethylamino)ethyl]-1-benzimidazolyl]methyl]-N-hydroxybenzamide]
- Selectivity HDAC1/HDAC6 [15]: 416

Compound: CC(=O)NCCCc1nc2ccccc2n1Cc1ccc(C(=O)NO)cc1 [12d, 4-[[2-(3-Acetamidopropyl)-1-benzimidazolyl]methyl]-N-hydroxybenzamide]
- Selectivity HDAC1/HDAC6 [15]: 312

More lines, main results first:

- IC50 [15, 21]: 8310 ± 905 nM
- fold reduction of HDAC6 activity compared to 12a [15]: > 900 fold
Compound: Cc1nc2ccccc2n1Cc1nc(C(=O)NO)cs1 [23b, N-Hydroxy-2-[(2-methyl-1-benzimidazolyl)methyl]thiazole-4-carboxamide]

- IC50 [15, 21]: 6 nM
Compound: Cc1nc2cc(F)ccc2n1Cc1ccc(C(=O)NO)cc1 [30b, 4-[(5-Fluoro-2-methyl-1-benzimidazolyl)methyl]-N-hydroxybenzamide]

- IC50 [15, 21]: 1 nM
Compound: O=C(NO)c1ccc(Cn2c(=O)cnc3ccccc32)cc1 [17f, N-Hydroxy-4-[(2-oxoquinoxalin-1(2H)-yl)methyl]benzamide]

- IC50 [15, 21]: 16 nM
- Selectivity HDAC1/HDAC6 [15]: 1500
Compound: O=C(NO)c1ccc(Cn2c(C(F)(F)F)nc3ccccc32)c(F)c1 [23e, 3-Fluoro-N-hydroxy-4-[(2-(trifluoromethyl)-1-benzimidazolyl)-methyl]benzamide]

- IC50 [15, 21]: 77 nM
Compound: Cc1nc2ccccc2n1Cc1ccc(C(=O)NO)cn1 [23c, N-Hydroxy-6-[(2-methyl-1-benzimidazolyl)methyl]nicotinamide]

- IC50 [15, 21]: 3 nM
Compound: O=C(NO)c1ccc(CN2CCNc3ccccc32)cc1 [17a, 4-[[1,2,3,4-Tetrahydroquinoxalin-1-yl]methyl]-N-hydroxybenzamide]

- IC50 [15, 21]: 39.3 ± 0.3 nM
Compound: O=C(NO)c1ccc(CN2CCN(CC3CC3)c3ccccc32)cc1 [17b, 4-[[4-(Cyclopropylmethyl)-1,2,3,4-tetrahydroquinoxalin-1-yl]-methyl]-N-hydroxybenzamide]

- fold reduction of HDAC6 activity compared to 12a [15]: > 400 fold
Compound: Cc1nc2ccccc2n1Cc1nc(C(=O)NO)co1 [23a, N-Hydroxy-2-[(2-methyl-1-benzimidazolyl)methyl]oxazole-4-carboxamide]

- IC50 [15, 21]: 34 nM
Compound: CC(C)(C)OC(=O)N1CC(=O)N(Cc2ccc(C(=O)NO)cc2)c2ccccc21 [17e, tert-Butyl 4-[4-(Hydroxycarbamoyl)benzyl]-3-oxo-3,4-dihydroquinoxaline-1(2H)-carboxylate]

- IC50 [15, 21]: 6 nM
Compound: O=C(NO)c1ccc(CN2CCSc3ccccc32)cc1 [17c, 4-[[2,3-Dihydro-4H-benzo[b][1,4]thiazin-4-yl]methyl]-N-hydroxybenzamide]

- Papp A→B [2]: 3.89 ×10⁻⁶ cm/s
- Papp B→A [2]: 13.2 ×10⁻⁶ cm/s
- half-life [3]: 1940 min
- half-life [4]: 285 min
- half-life [5]: 1490 min
- half-life [6]: 40 min
- plasma stability remaining percentage [7]: 93.4%
- plasma stability remaining percentage [8]: 87.9%
- IC50 [9]: > 50 µM
- IC50 [16]: > 50 µM
- IC50 [17]: 36 µM
- AUC(0-inf) ([10]; iv, 3 mg/kg): 1480 ng·h/mL
- Vd ([10]; iv, 3 mg/kg): 0.382 L/kg
- clearance ([10]; iv, 3 mg/kg): 34 mL/min/kg
- half-life ([10]; iv, 3 mg/kg): 51.1 min
- AUC(0-inf) ([10]; po, 30 mg/kg): 3100 ± 84 ng·h/mL
- Cmax ([10]; po, 30 mg/kg): 4370 ± 470 ng/mL
- Tmax ([10]; po, 30 mg/kg): 15 min
- IC50 [11]: > 50 µM
- IC50 [12]: > 50 µM
- IC50 [13]: > 50 µM
- solubility [14]: 302 µM (≈ 90.4 µg/mL)
- IC50 [18]: 470 nM
- IC50 [19]: 182 nM
- IC50 [20]: 176 nM
Compound: Cc1nc2ccccc2n1Cc1ccc(C(=O)NO)cc1F [23d, 3-Fluoro-N-hydroxy-4-[(2-methyl-1-benzimidazolyl)methyl]-benzamide]
- mitochondrial axonal transport (number of moving mitochondria per 100 μm of neurite) [1]: able to restore the movement of mitochondria

— PMC4775085 (ACS chemical neuroscience, 2015)
